Assay results taken from patent US12569500B2, “Combination comprising tricycle compound and use thereof in preparation of medicament for treating HBV” (FUJIAN AKEYLINK BIOTECHNOLOGY CO., LTD., priority 2020, dated 2026).
Where two headings read alike, the source gives them in different places.

Legend:
HBV = experiment: AAV/HBV mouse model, anti-hepatitis B virus efficacy in vivo (serum/liver HBV DNA, serum HBV RNA); design: species or system C57BL/6 mice
Method: 5-week-old male C57BL/6 mice without specific pathogen level, purchased from Shanghai Slack Laboratory Animal Co., Ltd.
Compound 1 was added with an appropriate amount of the above-mentioned solvent, and a uniform particle suspension was obtained after vortexing, and the preparation concentration was 1.0, 3.0 and 10.0 mg/mL. Store at 4° C. until used. Compound 1 is calculated according to the salt coefficient of 1.0 and the purity of 100%.
Tenofovir disoproxil (TDF) was purchased from Shanghai Panhong Chemical Technology Co., Ltd. Weigh an appropriate amount of TDF and dissolve it in physiological saline to prepare a 1 mg/mL mother liquor, vortex until TDF is fully dissolved, dispense into 1 mL size and store at −20° C. Take 1 mL of mother liquor before each administration, and dilute the working solution 10 times to 0.1 mg/mL with normal saline for the day's administration.
rAAV8-1.3HBV (Type D, ayw) was purchased from Beijing Wujiahe Institute of Molecular Medicine, batch number x2018032301, 1×10^12 viral genome (v.g.)/mL. Dilute with sterile PBS to 5×10^11 v.g./mL before the experiment. Each mouse was injected with 200 μL, that is, each mouse was injected with 1×10^11 v.g.
AAV/HBV injection: rAAV8-1.3HBV is pre-prepared with sterile PBS to a concentration of 1×10^11 v.g./200 μL solution before injection.
Infection level detection: On days 14 and 21 after virus injection, about 120 μL of blood was collected from the submandibular vein for all infected mice to collect serum. After the whole blood was incubated in a 37° C. incubator for 30 minutes, the blood was centrifuged at 13,200×g for 3 minutes at 4° C. to collect about 30 μL of serum. The serum is stored at −80° C. for the detection of HBV DNA, HBeAg and HBsAg.
Grouping: On the 28th day after virus injection, according to the levels of HBV DNA, HBsAg and HBeAg in serum samples on the 14th and 21st days after virus injection, and the body weight of the mice.
Definition of experimental days: the day of the first dosing is set to day 0 of the experiment.
Serum sample preparation: After the blood sample was incubated at 37° C. for about 30 minutes, centrifuged at 4° C., 13,200 g for 3 minutes, and the separated supernatant was quickly frozen in dry ice.
Blood was collected from the heart to collect serum for HBV DNA detection and detection of HBV RNA levels in groups 1 and 4.
3. Quantitative PCR detection of HBV DNA content in mouse serum and liver:
Data analysis: The data is expressed as the average value standard error of each group of samples. Unless otherwise specified, groups 1-6: n=8. Use Student's t test for statistical analysis.

[1] = Pharmacokinetic analysis of test compounds in AAV/HBV model mice; format: in vivo, C57BL/6 mice
[2] = 100 mpk BID, after 28 days of dosage, vs solvent group
[3] = 10 mg/kg, BID, AAV/HBV model mice, day 27
[4] = C57BL/6, mouse, serum, po, 10 mg/kg, BID, AAV/HBV model mice, day 27

For `Cc1cc2n(c1)S(=O)(=O)c1ccc(C(=O)NCC[C@H]3COCCO3)cc1NC2=O` [Compound 1], the “serum HBV DNA content” value (HBV; 10 mpk BID (Group 2), after 7 days of dosage) was “remained stable after 7 days of dosage”, the “HBV DNA content in the liver” value (HBV; 10 mpk BID, after 28 days of dosage, vs solvent group) was “decreased” and the “serum HBV DNA content” value (HBV; 30 mpk BID, after 7 days of dosage) was “remained stable after 7 days of dosage”. The “HBV DNA content in the liver” value (HBV; 30 mpk BID, after 28 days of dosage, vs solvent group) was “decreased”, the “serum HBV DNA content” value (HBV; 100 mpk BID, 7-28 days after dosage, vs solvent group, p<0.01) was “significantly lower than that in the solvent group” and the “HBV DNA content in the liver” value (HBV; [2]) was “decreased”. For the same molecule, the “HBV RNA content in the serum” value (HBV; [2]) was “decreased”, the “mouse serum and liver HBV DNA” value (HBV; compared with the solvent control group) was “significantly reduced” and the “serum HBV DNA content, trend over doses” value (HBV; low (10 mpk), medium (30 mpk), high (100 mpk) dose groups BID vs solvent group, after 3 days of dosage) was “dose-dependent trend”. For the same molecule, the AUC0-inf/AUC0-last [1, 3] was 101%, the Tlast [1, 3] was 24.0 h and the “T 1/2 calculation time range” value ([1]; 10 mg/kg, BID, AAV/HBV model mice, day 27, in h) was 9-24. It also gave an AUC(0-t) ([1]; C57BL/6, mouse, serum, po, 10 mg/kg, BID, AAV/HBV model mice, day 27, read-out: AUC0-8) of 26 µM·h, an AUC(0-t) ([1]; C57BL/6, mouse, serum, po, 10 mg/kg, BID, AAV/HBV model mice, day 27, read-out: AUC0-last) of 47.3 µM·h and an AUC(0-inf) [1, 4] of 47.6 µM·h. The Cmax [1, 4] was 12.2 µM, the Tmax [1, 4] was 1 h and the half-life [1, 4] was 2.23 h. For the same molecule, the MRT inf ([1]; C57BL/6, mouse, serum, po, 10 mg/kg, BID, AAV/HBV model mice, day 27, read-out: MRT0-inf) was 6.36 h, the MRT last ([1]; C57BL/6, mouse, serum, po, 10 mg/kg, BID, AAV/HBV model mice, day 27, read-out: MRT0-last) was 6.27 h and the concentration at 0 h ([1]; C57BL/6, mouse, serum, group 2, 10 mg/kg BID oral, day 27, 0 hours (before dosage), read-out: average drug concentration in the mouse serum) was 0.078 µM. The concentration at 4 h ([1]; C57BL/6, mouse, serum, group 2, 10 mg/kg BID oral, day 27, 4 hours after the first dosage, read-out: average drug concentration in the mouse serum) was 1.63 µM, the concentration at 8 h ([1]; C57BL/6, mouse, serum, group 2, 10 mg/kg BID oral, day 27, 8 hours after the first dosage, read-out: average drug concentration in the mouse serum) was 0.605 µM and the concentration at 9 h ([1]; C57BL/6, mouse, serum, group 2, 10 mg/kg BID oral, day 27, 9 hours after the first dosage, read-out: average drug concentration in the mouse serum) was 10.3 µM. It also gave a concentration at 12 h ([1]; C57BL/6, mouse, serum, group 2, 10 mg/kg BID oral, day 27, 12 hours after the first dosage, read-out: average drug concentration in the mouse serum) of 1.28 µM and a concentration at 24 h ([1]; C57BL/6, mouse, serum, group 2, 10 mg/kg BID oral, day 27, 24 hours after the first dosage, read-out: average drug concentration in the mouse serum) of 0.066 µM.
